Data published in patent US9187455B2, “Substituted pyridazines as PDE10A inhibitors” (Hoffmann-La Roche Inc., priority 2009, dated 2015).
pIC50: −log10 of the molar value.

Biological target: T1, PDE10A2 (Homo sapiens, UniProt Q9Y233)
T1 construct: residues serine 449 to aspartate 789; His6 (H6) with Gateway linker and thrombin cleavage site (N, cleaved yes); made in house; host or cells: E. coli BL21(DE3) pLysS
Experiment: PDE10A2 Scintillation Proximity Assay (SPA), [3H]-cGMP hydrolysis
Format: biochemical
Settings: catalytic domain of human PDE10A2 (S449-D789), 0.25 nM enzyme, 50 nM cGMP + 50 nM [3H]-cGMP, 30 minutes at room temperature; read-out: PDE10A2 inhibition IC50
Protocol: The following tests were carried out in order to determine the activity of the compounds of the present invention. PDE10 activity of the compounds of the present invention is determined using a Scintillation Proximity Assay (SPA)-based method similar to the one previously described (Fawcett, L. et al., ProcNatl Acad Sci USA (2000) 97(7):3702-3707).
PDE10A1 and PDE10A2 are two splice variants of PDE10A. There are these 2 splice variants known, which differ in the N-terminal part of the protein. The catalytic domains of PDE10A1 and PDE10A2 are identical. The assay for PDE10A2 described below is therefore also representative for PDE10A1 and also for PDE10A in general.
The PDE10A2 assay was performed in a two step procedure in 96-well micro titer plates. The reaction mixture of 80 μl contained 20 mM HEPES/10 mM MgCl2/[…] (pH 7.5), 50 nM cGMP (Sigma) and 50 nM [^3H]-cGMP (GE Healthcare), 0.25 nM PDE10A2 with or without a specific test compound. A range of concentrations of the potential inhibitor was used to generate data for calculating the concentration of inhibitor resulting in 50% of the effect (e.g. IC50, the concentration of the competitor inhibiting PDE10A2 activity 50%). Non-specific activity was tested without the enzyme. The reaction was initiated by addition of the substrate solution (cGMP and [^3H]-cGMP) and allowed to progress for 30 minutes at room temperature. The reaction was terminated by transferring 50 μl of the reaction mixture into an OptiPlate (Perkin Elmer) containing 25 μl of YSi-SPA scintillation beads (GE Healthcare) in 18 mM zinc sulphate solution (stop reagent). After 1 h under shaking, the plate was centrifuged one minute at 1000 rpm to allow beads to settle. Afterwards, radioactive counts were measured on a Perkin Elmer TopCount Scintillation plate reader.
The catalytic domain of human PDE10A2, residues serine 449 to aspartate 789, was amplified by PCR using cDNA (Origene) and the oligonucleotides 5′-GGGGACAAGTTTGT […]-3′ (with AttB1 recombination site in bold and thrombin protease cleavage site in italics) and 5′-[…]-3′ (with AttB2 recombination site in bold) which conferred Gateway recombination sites. The PCR product was used in a BP recombination reaction with pDONR221 to generate pENTR Thm-PDE10A2(S449-D789) which was DNA sequence verified and then used in an LR recombination reaction with a Gateway modified version of pET11a. The resulting expression vector, placT7.2H6-(gwl)-Thm-PDE10A2(S449-D789) was DNA sequence confirmed and transformed into E. coli strain BL21(DE3) pLysS and recombinant protein was produced in TB medium at 20° C. by induction to a final IPTG concentration of 0.5 mM at an optical density of 1.0 at 600 nm for 20 hours. About 30% of the protein was in the soluble fraction of the cell homogenate. The protein was purified using sequential chromatography on Ni-NTA and HiTrapQ/HiTrapS. After thrombin digest at room temperature a HiTrapChelating/HiTrap Benzamindin chromatography removed impurities, uncleaved protein and thrombin. Final purification of PDE10A2(S449-D789) was performed on a Superdex 75 size exclusion chromatography equilibrated with 25 mM HEPES pH 8.4, 0.15 M NaCl. The yield of pure protein was 2 mg/liter of culture volume is relatively low. The purity of the protein was >95%, monomeric and monodisperse as shown by SDS-PAGE, HPLC and analytical ultracentrifugation.

T1 sequence (Q9Y233 715-1055): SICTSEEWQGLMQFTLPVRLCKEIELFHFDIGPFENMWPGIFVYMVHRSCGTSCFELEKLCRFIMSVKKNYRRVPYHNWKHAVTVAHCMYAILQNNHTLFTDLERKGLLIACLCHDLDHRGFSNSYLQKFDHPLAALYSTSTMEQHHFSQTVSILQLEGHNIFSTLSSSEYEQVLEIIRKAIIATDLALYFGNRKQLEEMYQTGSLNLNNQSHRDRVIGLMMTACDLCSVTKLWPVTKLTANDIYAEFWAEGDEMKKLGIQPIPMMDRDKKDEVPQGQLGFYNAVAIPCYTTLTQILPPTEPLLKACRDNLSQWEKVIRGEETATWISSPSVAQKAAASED

Row | SMILES | pIC50
1 | O=c1ccn(-c2ccnc(C(F)(F)F)c2)nc1-c1ccnn1-c1ccccc1F [Example 94, 3-[2-(2-Fluoro-phenyl)-2H-pyrazol-3-yl]-1-(2-trifluoromethyl-pyridin-4-yl)-1H-pyridazin-4-one] | 6.55
2 | O=c1ccn(-c2ccncc2)nc1-c1ccnn1-c1ccc(F)cc1 [Example 7, 3-[2-(4-Fluoro-phenyl)-2H-pyrazol-3-yl]-1-pyridin-4-yl-1H-pyridazin-4-one] | 6.74
3 | COC(=O)c1cccc(-n2nccc2-c2nn(-c3ccncc3)ccc2=O)c1 [Example 10, 3-[5-(4-Oxo-1-pyridin-4-yl-1,4-dihydro-pyridazin-3-yl)-pyrazol-1-yl]-benzoic acid methyl ester] | 7.32
4 | O=c1ccn(-c2cncc(C(F)(F)F)c2)nc1-c1ccnn1-c1ccnc2ccccc12 [Example 71, 3-(2-Quinolin-4-yl-2H-pyrazol-3-yl)-1-(5-trifluoromethyl-pyridin-3-yl)-1H-pyridazin-4-one] | 7.25
5 | O=c1ccn(-c2cccnc2)nc1-c1ccnn1-c1ccc2c(c1)OCO2 [Example 32, 3-(2-Benzo[1,3]dioxol-5-yl-2H-pyrazol-3-yl)-1-pyridin-3-yl-1H-pyridazin-4-one] | 6.82
6 | O=c1ccn(-c2ccncc2)nc1-c1ccnn1-c1cccc2ncccc12 [Example 22, 1-Pyridin-4-yl-3-(2-quinolin-5-yl-2H-pyrazol-3-yl)-1H-pyridazin-4-one] | 7.46
7 | Cc1cncc(-n2ccc(=O)c(-c3ccnn3-c3ccnc4ccc(F)cc34)n2)c1 [Example 48, 3-[2-(6-Fluoro-quinolin-4-yl)-2H-pyrazol-3-yl]-1-(5-methyl-pyridin-3-yl)-1H-pyridazin-4-one] | 7.60
8 | NS(=O)(=O)c1ccc(-n2nccc2-c2nn(-c3ccncc3)ccc2=O)cc1 [Example 8, 4-[5-(4-Oxo-1-pyridin-4-yl-1,4-dihydro-pyridazin-3-yl)-pyrazol-1-yl]-benzenesulfonamide] | 5.20
9 | O=c1ccn(-c2ccncc2)nc1-c1ccnn1-c1cccc2cnccc12 [Example 21, 3-(2-Isoquinolin-5-yl-2H-pyrazol-3-yl)-1-pyridin-4-yl-1H-pyridazin-4-one] | 7.55
10 | CN(C)S(=O)(=O)c1cccc(-n2nccc2-c2nn(-c3ccncc3)ccc2=O)c1 [Example 28, N,N-Dimethyl-3-[5-(4-oxo-1-pyridin-4-yl-1,4-dihydro-pyridazin-3-yl)-pyrazol-1-yl]-benzenesulfonamide] | 5.49
11 | Cc1ccc(-n2nccc2-c2nn(-c3ccncc3)ccc2=O)cc1 [Example 11, 1-Pyridin-4-yl-3-(2-p-tolyl-2H-pyrazol-3-yl)-1H-pyridazin-4-one] | 6.99
12 | O=c1ccn(-c2cccnc2)nc1-c1ccnn1-c1cccc2ncccc12 [Example 84, 1-Pyridin-3-yl-3-(2-quinolin-5-yl-2H-pyrazol-3-yl)-1H-pyridazin-4-one] | 6.77
13 | O=c1ccn(-c2cccnc2)nc1-c1ccnn1-c1ccc2c(c1)OCCO2 [Example 34, 3-[2-(2,3-Dihydro-benzo[1,4]dioxin-6-yl)-2H-pyrazol-3-yl]-1-pyridin-3-yl-1H-pyridazin-4-one] | 7.09
14 | N#Cc1cc(-n2ccc(=O)c(-c3ccnn3-c3cccc(F)c3)n2)ccn1 [Example 44, 4-{3-[2-(3-Fluoro-phenyl)-2H-pyrazol-3-yl]-4-oxo-4H-pyridazin-1-yl}-pyridine-2-carbonitrile] | 5.64
15 | O=c1ccn(-c2ccncc2)nc1-c1ccnn1-c1cncc2ccccc12 [Example 73, 3-(2-Isoquinolin-4-yl-2H-pyrazol-3-yl)-1-pyridin-4-yl-1H-pyridazin-4-one] | 6.73
16 | N#Cc1ccc(-n2ccc(=O)c(-c3ccnn3-c3ccccc3F)n2)cn1 [Example 76, 5-{3-[2-(2-Fluoro-phenyl)-2H-pyrazol-3-yl]-4-oxo-4H-pyridazin-1-yl}-pyridine-2-carbonitrile] | 6.21
17 | O=c1ccn(-c2ccnc(Cl)c2)nc1-c1ccnn1-c1ccnc2ccc(F)cc12 [Example 55, 1-(2-Chloro-pyridin-4-yl)-3-[2-(6-fluoro-quinolin-4-yl)-2H-pyrazol-3-yl]-1H-pyridazin-4-one] | 6.91
